# Data from patent US10745383B2, “1,3,5-triazine derivative and method of using same” (CHIA TAI TIANQING PHARMACEUTICAL GROUP CO., LTD., priority 2015, dated 2020).
# pIC50: −log10 of the molar value.
# How the values were obtained:
# [1] = Pharmacokinetic parameters in rats after a single intragastric dose; format: in vivo; details: for AUC(0-inf) / Cmax / Tmax / half-life: rat, po, male rats, intragastric, single dose 5 mg/kg, plasma
# Description: Healthy male adult rats (7-9 weeks old) were used in this study. Each group of animals (3 male rats) was intragastrically administered once at a single dose of 5 mg/kg. The animals in the intragastric administration group were fasted overnight before this study. The fasting time period was from 10 hours before administration to 4 hours after administration.
# Blood samples were taken at 0.25, 0.5, 1, 2, 4, 6, 8 and 24 h after administration. The animals were anesthetized with isoflurane using an animal anesthesia machine, and then 0.3 mL whole blood samples were taken from the fundus venous plexus. The blood samples were placed in heparin anticoagulant tubes, and centrifuged for 5 min at 4° C. and 4000 rpm. The resulting plasmas were transferred to centrifuge tubes, and stored at −80° C. until analysis.
# Verified LC-MS/MS method was used to analyze the plasma samples. Plasma concentration-time data of animals were analyzed using WinNonlin (Professional Edition, version 6.3; Pharsight Company) software. The non-compartmental model was introduced for concentration analysis. The pharmacokinetic parameters of the compounds were calculated.
# IDH2 (R172K, 40-end) = IDH2 (R172K, 40-end) (Homo sapiens (Human), UniProt P48735, R172K); assay: IDH2 inhibitory activity determined by decrease of NADPH (diaphorase/resazurin fluorescence); format: biochemical; details: 120 min pre-incubation with enzyme and NADPH, 120 min reaction with α-KG
# Chain of IDH2 (R172K, 40-end) (P48735 40-452 R172K): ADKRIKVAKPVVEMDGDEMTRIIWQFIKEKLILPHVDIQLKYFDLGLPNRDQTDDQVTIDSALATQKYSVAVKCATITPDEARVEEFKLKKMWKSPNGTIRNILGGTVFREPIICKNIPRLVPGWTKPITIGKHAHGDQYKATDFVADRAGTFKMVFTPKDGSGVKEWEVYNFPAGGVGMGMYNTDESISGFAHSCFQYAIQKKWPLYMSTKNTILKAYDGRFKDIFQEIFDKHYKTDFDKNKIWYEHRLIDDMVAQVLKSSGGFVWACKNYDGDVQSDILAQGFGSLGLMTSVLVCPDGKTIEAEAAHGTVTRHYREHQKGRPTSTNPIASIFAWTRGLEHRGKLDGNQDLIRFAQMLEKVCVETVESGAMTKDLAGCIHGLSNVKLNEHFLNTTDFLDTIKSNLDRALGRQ
# Description: The inhibitory activity of the compounds of the present application against IDH2 (R172K, 40-end) was determined by using the following method, which was expressed as IC50 values, i.e., the concentrations of the compounds required to achieve 50% inhibition of IDH2 activity.
# The inhibitory activity of a compound against IDH2 (R172K, 40-end) was determined by the decrease of a helper factor NADPH. The test compound was pre-incubated with an enzyme and NADPH, and then a reaction was initiated by the addition of α-KG, and performed for 120 minutes under a linear condition. Then, the reaction was terminated by the addition of diaphorase (lipoamide dehydrogenase) and the corresponding substrate resazurin. Diaphorase terminated the IDH2m reaction by decreasing the available helper factor NADPH, which oxidized NADPH to NADP, and reduced resazurin to highly fluorescent resorufin. The amount of remaining helper factor NADPH after a specific reaction time was quantified via an easily detectable fluorophore.
# Specifically, 2.5 μl of a 3-fold gradient diluted test compound was added to a 384-well plate, and then 5 μl of a reaction buffer (20 mM Tris-HCl, PH7.5; 150 mM NaCl; 10 mM MgCl2; 10 mM MnCl2; 0.4 mg/ml BSA and 2 mM DTT) containing 80 nM IDH2 (R172K, 40-end) and 40 μM NADPH was added. Then, the resulting test mixture was incubated for 120 minutes at a temperature of 23° C., and then 2.5 μl of the reaction buffer containing 4 mM α-KG was added to initiate the reaction. After incubating for 120 minutes at room temperature, 5 μl of a termination mixture (0.4 U/ml diaphorase and 40 μM resazurin) prepared with the reaction buffer was added to convert resazurin to resorufin to determine the remaining NADPH. After incubating for 10 minutes at a temperature of 23° C., a fluorescence value was determined through Flexstation 3 at Ex535/Em595.
# [2] = rats, same dose (5 mg/kg intragastric)
structure (smiles),measurement,setting,value
"CC(C)(O)CNc1nc(Nc2ccnc(C(F)(F)F)c2)nc(-c2cccc(C(F)(F)F)n2)n1 [AG-221, reference compound]",AUC(0-inf),[1],5380 ng·h/mL
same,Cmax,[1],479 ng/mL
same,Tmax,[1],4 h
same,half-life,[1],3.73 h
"FC(F)(F)c1cc(Nc2nc(NOCc3ccccc3)nc(-c3cccc(C(F)(F)F)n3)n2)ccn1 [Example 8, 4-((benzyloxy)amino)-6-(6-(trifluoromethyl)pyridin-2-yl)-N-(2-(trifluoromethyl)pyridin-4-yl)-1,3,5-triazin-2-amine]",pIC50,"IDH2 (R172K, 40-end)",6.62
"CC(C)(O)CONc1nc(Nc2ccnc(C(F)(F)F)c2)nc(-c2cccc(C(F)(F)F)n2)n1 [Example 6, 2-methyl-1-(((4-(6-(trifluoromethyl)pyridin-2-yl)-6-((2-(trifluoromethyl)pyridin-4-yl)amino)-1,3,5-triazin-2-yl)amino)oxy)propan-2-ol]",pIC50,"IDH2 (R172K, 40-end)",7.33
"CC(C)(C)ONc1nc(Nc2ccnc(C(F)(F)F)c2)nc(-c2cccc(C(F)(F)F)n2)n1 [Example 3, 4-(tert-butoxyamino)-6-(6-(trifluoromethyl)pyridin-2-yl)-N-(2-(trifluoromethyl)pyridin-4-yl)-1,3,5-triazin-2-amine]",pIC50,"IDH2 (R172K, 40-end)",7.50
same,AUC(0-inf),[1],10800 ng·h/mL
same,Cmax,[1],589 ng/mL
same,Tmax,[1],5 h
same,half-life,[1],12 h
same,half-life compared with AG-221,[1]; [2],longer half-life
same,metabolism in vivo compared with AG-221,[1]; [2],better metabolism in vivo
same,plasma concentration compared with AG-221,[1]; [2],higher plasma concentration
"CC(C)(CO)ONc1nc(Nc2ccnc(C(F)(F)F)c2)nc(-c2cccc(C(F)(F)F)n2)n1 [Example 7, 2-methyl-2-(((4-(6-(trifluoromethyl)pyridin-2-yl)-6-((2-(trifluoromethyl)pyridin-4-yl)amino)-1,3,5-triazin-2-yl)amino)oxy)propan-1-ol]",pIC50,"IDH2 (R172K, 40-end)",6.81
"CCONc1nc(Nc2ccnc(C(F)(F)F)c2)nc(-c2cccc(C(F)(F)F)n2)n1 [Example 1, 4-(ethoxyamino)-6-(6-(trifluoromethyl)pyridin-2-yl)-N-(2-(trifluoromethyl)pyridin-4-yl)-1,3,5-triazin-2-amine]",pIC50,"IDH2 (R172K, 40-end)",7.65
"CC(C)(C)ONc1nc(Nc2ccnc(C(F)(F)F)c2)nc(-c2ccccc2)n1 [Example 10, 4-(tert-butoxyamino)-6-phenyl-N-(2-(trifluoromethyl)pyridin-4-yl)-1,3,5-triazin-2-amine]",pIC50,"IDH2 (R172K, 40-end)",7.29
"FC(F)(F)c1cc(Nc2nc(NOCC3CC3)nc(-c3cccc(C(F)(F)F)n3)n2)ccn1 [Example 4, 4-((cyclopropylmethoxy)amino)-6-(6-(trifluoromethyl)pyridin-2-yl)-N-(2-(trifluoromethyl)pyridin-4-yl)-1,3,5-triazin-2-amine]",pIC50,"IDH2 (R172K, 40-end)",7.42
